In series [1] the test system is HEYA8 or SKOV3ip1 tumors. Description: Therapeutic study in ovarian tumor xenografts (tumor size). Format: in vivo, mice. To be noted: siRNA 150 μg/kg twice weekly, paclitaxel 100 μg weekly, four weeks.
Protocol: For therapeutic studies, mice were injected with HEYA8 or SKOV3ip1 cells. One week later, mice were treated twice weekly with DOPC-EPHA2 siRNA (150 μg/kg) alone or in combination with weekly paclitaxel (100 μg), for four consecutive weeks.
For series [2], the system named is CAOV4 and HEY cell lines in which PVT1 and MYC are highly amplified. Description: Cell cycle / proliferation after siRNA treatment (BrdUrd/DNA distributions), PVT1/MYC amplified lines. It counts as cell-based, human. To be noted: for cell cycle progression (BrdUrd/DNA distributions): CAOV4 and HEY, 48 hours after siRNA treatment, FIG. 7A; for cell proliferation / G1-phase block: ovarian cancer cell lines in which PVT1 is amplified and over expressed. The protocol:
(§1) In this system, stock cell lines are transferred from flasks and 5×10^4 cells will be seeded into 24-well cell culture plates and transferred to a multi-plate incubator. Individual wells are treated with 40-120 nM siRNA and 2.5-7.5 μg/ml Lipofectamine 2000 (Invitrogen) in […] Opti-MEM reduced serum medium (Invtrogen) for 4 hours (with or without drug) in order to induce the necessary experimental perturbations. After 4 hours, the Opti-MEM are replaced with complete culture medium and the cells cultured for an additional 44 hours. Cell lysates then are extracted and re-formatted into standard 96-well microtiter plates using a Tecan multi-channel liquid handling system. These plates are then fed separately into RNA transcript, protein expression or cell analysis pipelines. For cellular profiling, treated cell culture plates are transported to a Cellomics High Content Imaging system (see below). Transcript profiling is accomplished using Affymetrix U133A/B arrays processed using the Affymetrix High Throughput Analysis system (installed at LBNL in December 2004 under an Affymetrix early access agreement). Protein profiling is accomplished using reverse phase protein at MD Anderson using lysate array technology in cases where suitable antibodies exist. Important pathway proteins are assessed using western blotting in cases where antibodies are not sufficiently specific for use on protein lysate arrays.
(§2) A Becton Dickinson cytometer can be used to measure DNA/BrdUrd distributions and/or DNA distributions during treatment. […] For BrdUrd/DNA analysis, cells are pulse labeled for 30 min. with 1 μM BrdUrd, fixed in 70% ethanol, treated with RNase, denatured and stained with propidium iodide (PI) and a fluorescently labeled antibody against BrdUrd as described in Dolbeare, F., Gratzner, H., Pallavicini, M. G. & Gray, J. W. Flow cytometric measurement of total DNA content and incorporated bromodeoxyuridine. Proc Natl Acad Sci USA 80, 5573-7 (1983), and placed in 96 well trays for analysis.
In FIGS. 7B and 7C, the BrdU data is measuring proportions of cell cycle phases of ovarian cancer cell lines that overexpress PVT1. Referring to the graphs in FIGS. 7B and 7C, cells were left untreated (control, blue bar), treated with lipofectamine 2000 (lipo, purple bar) and green fluorescent protein (GFP; green bar) as controls or treated with PVT1 siRNA (PVT1 si, yellow bar, SEQ ID NO: 3 and 4). The error bars are standard deviation values from more than one experiment. If there are no error bars on a column, it means the experiment was not repeated.

Series [3] deals with HEY and CAOV4 cells. Description: Apoptosis after siRNA treatment (phase contrast, PI DNA content distribution), PVT1 amplified lines. Format: cell-based, human. The note with it: for apoptosis induced DNA fragments (DNA distribution below the G1/diploid peak): CAOV4 cells, FIG. 9A; for induction of apoptosis / cell death: ovarian cancer cell lines in which PVT1 is amplified and over expressed. The protocol:
as §1, §2
Referring again to FIG. 8, an additional measure of apoptosis can include staining with an Alexa Fluor® 488 conjugate of annexin V (Molecular Probes) and staining with propidium iodide (PI). PI is impermeable to apoptotic cells and live cells, but can enter and bind nucleic acids in necrotic cells. An apoptotic index can be assessed by measuring the fraction of “sub diploid” cells after staining for DNA content using PI as illustrated in FIG. 8A. Cells are fixed in 70% ethanol, treated with RNAse and placed in 96-well trays for DNA content analysis.

The test system of series [4] is ovarian cancer cell lines that do not amplify PVT1. Description: High content imaging for apoptosis (Cellomics Multiparameter Apoptosis 1 HitKit), lines that do not amplify PVT1. It counts as cell-based, human. From the text:
(§3) A high content fluorescence image analysis system at LBNL (Cellomics, KineticScan) was used to characterize cellular responses to siRNA inhibitors including proliferation rate, apoptotic rate and motility. The KineticScan is an automated imaging instrument that scans through the bottom of clear-bottom 24-well plates, focuses on a field of cells, and acquires images at each selected color channel. The Cellomics software identifies and measures individual features and structures within each cell in a field of cells, so that up to hundreds of cell samples can be analyzed in parallel. The software then tabulates and presents the results in user-defined formats.
(§4) Referring to FIG. 10, PVT siRNA-treated ovarian cell lines were analyzed by high content imaging for apoptosis. Apoptotic cells were detected based on nuclear morphology, mitochondrial mass and/or membrane potential, and f-actin content following staining with the Cellomics Multiparameter Apoptosis 1 HitKit™. Nuclear morphology (i.e., condensation or fragmentation) are measured after staining with Hoechst 33342. Mitochondrial membrane potential and mitochondrial mass are measured after staining with MitoTracker® Red. F-actin is measured after staining with an Alexa Fluor® 488 conjugate of phalloidin (Ax488-ph). Changes in the actin cytoskeleton have been used as a potential parameter related to apoptotic changes. […]

Series [5] has as its system ovarian cancer cell lines that amplify PVT1. Description: High content imaging for apoptosis (Cellomics Multiparameter Apoptosis 1 HitKit), lines that amplify PVT1. Format: cell-based, human.
Excerpt: as §3, §4

In series [6] the test system is OV90, in which MYC and PVT1 are not amplified; cell lines not expressing PVT1. Briefly: Cell cycle / growth after siRNA treatment (BrdUrd/DNA distributions), unamplified lines. The note with it: for cell cycle progression (BrdUrd/DNA distributions): OV90 (unamplified), 48 hours after siRNA treatment, FIG. 7A. Format: cell-based, human.
Series [7] concerns cell lines that do not amplify or over express PVT1. Briefly: Apoptosis / cell death after PVT1 siRNA, lines without PVT1 amplification. Format: cell-based, human. The note with it: cell lines in which PVT1 is not amplified or over expressed. The protocol:
as §1, with “Transcript profiling is accomplished using Affymetrix U133A/B arrays processed using the Affymetrix High Throughput Analysis system (installed at LBNL in December 2004 under an Affymetrix early access agreement). Protein profiling is accomplished using reverse phase protein at MD Anderson using lysate array technology in cases where suitable antibodies exist.” left out
Referring again to FIG. 8, an additional measure of apoptosis can include staining with an Alexa Fluor® 488 conjugate of annexin V (Molecular Probes) and staining with propidium iodide (PI). […] An apoptotic index can be assessed by measuring the fraction of “sub diploid” cells after staining for DNA content using PI as illustrated in FIG. 8A. […]

Experimental findings from patent US8404829B2, “Predictive and therapeutic markers in ovarian cancer” (The Regents of the University of California, priority 2005, dated 2013) are described below.

“Also recorded” adds a separate entry of the source.

As for `CC(=O)O[C@H]1C(=O)[C@@]2(C)[C@H]([C@H](OC(=O)c3ccccc3)[C@]3(O)C[C@H](OC(=O)[C@H](O)[C@@H](NC(=O)c4ccccc4)c4ccccc4)C(C)=C1C3(C)C)[C@]1(OC(C)=O)CO[C@@H]1C[C@@H]2O` [paclitaxel], the “effect on tumor size” value in series [1] is listed as “effective in reducing tumor size”.
Turning to “PVT1 siRNA: siRNA against PVT1; sense CAGCCAUCAUGAUGGUACU (SEQ ID NO: 3), antisense AGUACCAUCAUGAUGGCUG (SEQ ID NO: 4) (listed as RNA, chemistry not given here)”, the “cell cycle progression (BrdUrd/DNA distributions)” value in series [2] is listed as “strongly inhibited”; in series [6] it was “not in the unamplified line”. Moreover, the “S phase proportion (BrdU)” value in series [2] (cell lines overexpressing PVT1, vs untreated, lipofectamine 2000 and GFP controls, FIG. 7B) is “much shorter than in the 3 control columns”. The “cell proliferation / G1-phase block” value is recorded as “inhibit cell proliferation by blocking cell in the G1-phase of the cell cycle; also recorded: blocks cells in the G1 phase of the cell cycle” in series [2] and “particularly effective in inhibiting proliferation” in series [2] (listed as siRNAs against PVT1). Also, the “apoptosis induced DNA fragments (DNA distribution below the G1/diploid peak)” value in series [3] is listed as “Apoptosis induced DNA fragments are present after PVT1 inhibition”. Moreover, the “apoptotic blebbing (phase contrast photomicrographs)” value in series [3] (HEY cells, treated 48 hours, FIG. 8) is given as “apoptotic blebbing after siRNA inhibition of PVT1 is apparent”. The “induction of apoptosis / cell death” value is “inducing cell death; also recorded: induces apoptosis” in series [3]; “induced apoptosis” in series [3] (listed as siRNA against PVT1); “inducing apoptosis” in series [3] (listed as siRNAs against PVT1); “do not inhibit growth or induce cell death” in series [7]; “no apoptotic response” in series [7] (listed as siRNA against PVT1). Further, the “F-actin content and thereby apoptosis” value in series [4] (cell lines having no increased PVT1 amplification, FIG. 10A) is given as “remained low”. The “apoptotic levels (nuclear morphology, mitochondrial mass/potential, f-actin)” value is “normal apoptotic levels” in series [4] (cell lines that do not amplify PVT1) and “increased apoptotic levels, higher than levels of cells treated with paclitaxel” in series [5] (cell lines that amplify PVT1, FIG. 10C). For the same compound, the F-actin content entry in series [5] (cell lines which overamplify PVT1, after PVT1 siRNA) is “Increased F-actin content”. For the same compound, in series [6] (cell lines that do not amplify or over express PVT1), the growth inhibition result is given as “do not inhibit growth”. Besides, in series [6] (ovarian cancer cell lines not expressing PVT1, FIG. 7C), the “effect on cell cycle (S phase, BrdU)” value is reported as “does not affect the cell cycle”.
Turning to “MYC siRNA: siRNA against c-myc; sense GAGGCGAACACACAACGUC (SEQ ID NO: 18), antisense GACGUUGUGUGUUCGCCUC (SEQ ID NO: 19) (listed as RNA, chemistry not given here)”, in series [2], the “cell cycle progression (BrdUrd/DNA distributions)” value was “strongly inhibited” and the “cell proliferation / G1-phase block” value was “blocks cells in the G1-phase of the cell cycle”. Also, in series [3], the “apoptosis induced DNA fragments (DNA distribution below the G1/diploid peak)” value was “not after MYC inhibition” and the “induction of apoptosis / cell death” value is “does not induce apoptosis”. In series [6], the “cell cycle progression (BrdUrd/DNA distributions)” value is recorded as “not in the unamplified line”.
